{
  "source": "patent US7259254B2",
  "about": "“Mutants and assay system to identify USP/RXR ligands” (University of Kentucky Research Foundation, priority 2002, dated 2007)",
  "key": {"[1]": {"system": "Core promoter reporter with DR1, DR4 or DR12 nuclear hormone response element in Sf9 cells", "test": "Sf9 cell transfection assay: methyl epoxyfarnesoate activation of DR-enhancer/Core promoter luciferase reporter", "format": "cell-based, Spodoptera frugiperda", "settings": "transfected Sf9 cells, 75 μm methyl epoxyfarnesoate", "method": "Spodoptera frugiperda cell line, Sf9, was maintained and transfected as described previously Jones et al (1998) Biochem. J. 335, 79-84; Jones et al. (2000) Biochem. J. 346, 233-240. As an internal control to compare activities of different constructs, 0.3 μg of a constituitive heat-shock promoter-driven β-galactosidase gene was cotransfected. To study the role of USP in activation of the nuclear hormone receptor response element fused to core promoter in methyl epoxyfarnesoate-treated cells, cloned D. melangaster USP (dUSP) cDNA and its derivatives containing mutations in the ligand-binding pocket were cotransfected with the reporter and internal control plasmids. […] After 48 h of the treatment, the cells were harvested and the activity of the luciferase reporter was measured using a luciferase assay kit (Promega) in a multipurpose scintillation counter (Beckman, Fullerton, Calif.). β-Galactosidase activity was measured using chlorophenol red-[…] monosodium (CPRG; Roche Molecular Biochemicals) as a colorimetric substrate.\nThe sequences and characteristics of the core promoter ([…]) of the JHE gene were described by Jones et al. (2001) Insect Biochem. Mol. Biol. 32, 33-49; Jones et al (1998) Biochem. J. 335, 79-84; 79-84; Jones et al. (2000) Biochem. J. 346, 233-240. The core promoter responds to respond to methyl epoxyfarnesoate through a heterologous 5′ flanking direct repeat motif in cell transfection assay. This Core promoter reporter was cloned into KpnI/BglII sites of pGL3. An NheI site was then placed immediately 5′ to the KpnI site, and multiple direct repeat (DR) sequences were cloned into the NheI site by the following method. […] Upon annealing, the double stranded oligonucleotides would then have a CTAG overhang at each 5′ end. The annealed oligonucleotides were then ligated into concatamers, fractionated by native PAGE and the gel fractions corresponding to higher concatamer forms recovered and ligated into the NheI site. Specific DR sequences for the oligonucleotides were (upper strand) for DR1: 5′-CAAGGTCAAAGGTCAG-3′ (SEQ ID NO: 13), for DR4: 5′-CAAGGTCAAGAAAGGTCAG-3′ (SEQ ID NO: 14), for DR12: 5′-[…]-3′ (SEQ ID NO: 15; CTAG on 5′ ends not shown). The recovered YDRXCore constructs (X representing 1, 4 or 12 intervening bases; Y representing the number of tandem pairs of direct repeats) were verified by sequencing. The intervening sequences in the DR1 and DR4 motifs were randomly chosen, while the DR12 sequence used is found in the ecdysteroid-sensitive ng-1 and ng-2 genes that are expressed during metamorphosis of D. melanogaster, and can serve in vitro as a binding site for the various receptor dimers involving USP (ecdysteroid receptor (EcR)/USP heterodimer, USP/DHR38 heterodimer and USP/USP homodimer. […]"}, "[2]": {"molecular_target": "T1, His-tagged wild-type dUSP (Drosophila melanogaster, UniProt P20153)", "T1 construct": "His tag; made in house; host or cells: bacteria (pET32EK vector)", "T1 sequence (P20153 1-508)": "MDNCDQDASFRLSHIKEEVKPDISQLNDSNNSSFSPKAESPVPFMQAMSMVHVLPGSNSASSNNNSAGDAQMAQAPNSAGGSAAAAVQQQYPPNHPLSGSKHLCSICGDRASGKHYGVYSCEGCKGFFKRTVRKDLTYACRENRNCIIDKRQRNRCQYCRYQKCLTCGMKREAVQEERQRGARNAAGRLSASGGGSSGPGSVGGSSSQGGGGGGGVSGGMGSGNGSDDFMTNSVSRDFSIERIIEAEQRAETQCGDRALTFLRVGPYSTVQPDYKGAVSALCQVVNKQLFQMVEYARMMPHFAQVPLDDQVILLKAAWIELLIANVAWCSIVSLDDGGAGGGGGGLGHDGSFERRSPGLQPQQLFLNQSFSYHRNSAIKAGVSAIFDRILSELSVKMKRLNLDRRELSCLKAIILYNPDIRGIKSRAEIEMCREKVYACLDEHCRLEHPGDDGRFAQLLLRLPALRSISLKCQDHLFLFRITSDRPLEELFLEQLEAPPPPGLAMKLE", "test": "Intrinsic tryptophan fluorescence ligand-binding assay, wild-type dUSP", "settings": "excitation 290 nm, emission 340 nm, 0.5 μm receptor", "method": "(§1) The homodimer-enriched fraction of bacterial recombinant His-dUSP fusion protein was purified by nickel resin selection, elution with imidazole, centrifugal concentration, and then gel permeation chromatography (Superdex 200) with procedures and chemical sources exactly as already described previously Jones et al. (2000) Insect Biochem. Mol. Biol. 30, 671-679. The homodimer-enriched fraction of the purified His-USP fusion protein was raised to 2 ml of NaCl and a final concentration of 0.5 μm. For a fluorescence-based ligand-binding assay based on intrinsic tryptophan fluorescence Jones et al. (2001) Insect Biochem. Mol. Biol. 32, 33-49; Jones et al (1998) Biochem. J. 335, 79-84; 79-84; Jones et al. (2000) Biochem. J. 346, 233-240; Jones et al (1997) Proc. Natl. Acad. Sci. USA 94, 13499-13503, ligand or ethanol carrier was added and the receptor preparation excited at 290 nm and monitored for emission at 340 nm, until the signal from the receptor had stabilized. Fluorescence was measured three times for each sample, with standard deviation typically smaller than the graphical plotted datum point. Each fluorescence experiment was replicated on three or more independent occasions, each time with similar results.\n(§2) The ability of the wild-type dUSP and dominant negative, ligand-binding pocket mutant dUSP to bind methyl epoxyfarnesoate was tested."}, "C472A/H475L mutant dUSP": {"molecular_target": "T2, C472A/H475L mutant dUSP (Drosophila melanogaster, UniProt P20153, C472A/H475L)", "T2 construct": "His tag; made in house; host or cells: bacteria (pET32EK vector)", "T2 sequence (P20153 whole entry C472A/H475L)": "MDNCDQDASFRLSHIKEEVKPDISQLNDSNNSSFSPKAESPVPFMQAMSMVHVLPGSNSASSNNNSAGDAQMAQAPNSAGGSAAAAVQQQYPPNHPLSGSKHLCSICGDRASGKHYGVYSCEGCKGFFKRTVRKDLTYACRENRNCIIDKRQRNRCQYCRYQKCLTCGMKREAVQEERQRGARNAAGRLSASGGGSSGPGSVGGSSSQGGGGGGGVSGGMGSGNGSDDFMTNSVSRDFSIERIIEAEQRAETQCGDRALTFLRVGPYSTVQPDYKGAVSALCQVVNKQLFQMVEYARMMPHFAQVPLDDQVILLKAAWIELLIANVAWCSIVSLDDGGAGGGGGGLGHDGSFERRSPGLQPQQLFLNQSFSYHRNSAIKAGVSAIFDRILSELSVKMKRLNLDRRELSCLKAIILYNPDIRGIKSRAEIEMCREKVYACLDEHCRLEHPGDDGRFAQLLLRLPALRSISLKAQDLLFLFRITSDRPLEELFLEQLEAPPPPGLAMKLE", "test": "Intrinsic tryptophan fluorescence ligand-binding assay, C472A/H475L mutant dUSP", "settings": "75 μm ligand; excitation 290 nm, emission 340 nm", "method": "as §1, §2"}, "P498W/P499W mutant USP": {"molecular_target": "T3, P498W/P499W mutant USP (Drosophila melanogaster, UniProt P20153, P498W/P499W)", "T3 construct": "His tag; made in house; host or cells: bacteria (pET32EK vector)", "T3 sequence (P20153 whole entry P498W/P499W)": "as the sequence (P20153 whole entry C472A/H475L) above, with A472C, L475H, P498W, P499W counted along it", "test": "Intrinsic tryptophan fluorescence ligand-binding assay, P498W/P499W mutant USP", "settings": "excitation 290 nm, emission 340 nm", "method": "as §1, with “results. […]” for “results.”"}, "[3]": {"system": "Core promoter reporter with DR1, DR4 or DR12 nuclear hormone response element in Sf9 cells", "settings": "previous studies; cited from earlier work"}},
  "data": [
    {"smiles": "COC(=O)C=C(C)CCC=C(C)CCC1OC1(C)C", "note": "(stereo not drawn) [methyl epoxyfarnesoate]", "values": [
      {"measurement": "induction in promoter activity, four tandem copies of DR1 motif", "setting": "[1]", "value": 2.5, "unit": "fold"},
      {"measurement": "induction in promoter activity, four tandem copies of DR4 motif", "setting": "[1]", "value": 3.5, "unit": "fold"},
      {"measurement": "responsiveness of 1DR12mutCore (both DR12 half sites mutated)", "setting": "[1]", "value": "no greater than the background of a Core promoter with no enhancer"},
      {"measurement": "induction in promoter activity, 4DR12Core construct", "setting": "[1]; four tandem DR12 motifs", "value": 10, "unit": "fold"},
      {"measurement": "effect on receptor intrinsic fluorescence (ligand binding), wild-type dUSP", "setting": "[2]", "value": "suppressed the fluorescence"},
      {"measurement": "effect on receptor intrinsic fluorescence (ligand binding), wild-type dUSP", "setting": "[2]; listed as Methyl epoxyfarnesoate", "value": "suppression of receptor fluorescence"},
      {"measurement": "effect on receptor intrinsic fluorescence (ligand binding), C472A/H475L mutant dUSP", "setting": "C472A/H475L mutant dUSP", "value": "did not exhibit a significant response"},
      {"measurement": "effect on receptor intrinsic fluorescence, P498W/P499W mutant USP", "setting": "P498W/P499W mutant USP", "value": "sharply increasing in fluorescence before then decreasing"},
      {"measurement": "concentration of maximum effect (dose dependent)", "setting": "[3]", "value": "~75", "unit": "μm"}
    ]}
  ]
}
